Measurements published in patent publication US20240400591A1 (Jacobio Pharmaceuticals Co., Ltd., priority 2021, published 2024).
Like-named read-outs stand apart in the source and are kept apart here.

How the values were obtained:
[1] = tested on: NUGC-3_P53_Luc single clonal cell line (p53 Y220C); assay: Reporter gene assay (p53 RE luciferase); type: cell-based; details: luciferase reporter, 6 hours, normalized to Ref-1a (10 μM) high control, read-out: p53(Y220C)_NUGC-3 EC50
Method in brief: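 NUGC-3 cells stably carrying a p53 RE-driven luc2P reporter, washed free of phenol red, exposed to compound for 6 h at 37 °C; luminescence read. Activity normalised between DMSO (low) and Ref-1a 10 μM (high) controls; EC50 from 4-parameter logistic fit or Excel as concentration giving 50% activity.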

[2] = target: T1, His-p53 Y220C (94-294) protein (Homo sapiens, UniProt P04637, Y220C); assay: In vitro DNA binding assay (HTRF); type: biochemical; details: % activation normalized to 2 μM Ref-1a high control
T1 construct: His-p53 Y220C (94-294) protein

NUGC3 (P53 Y220C) = assay: Cell viability assay (CellTiter-Glo, 6 days), NUGC3; type: cell-based; details: cell viability, 6 days, CellTiter-Glo, read-out: NUGC3 (P53 Y220C) IC50
Method in brief: (§1)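 Cells seeded overnight at 37 °C, then exposed to compounds in medium for 6 days. Viability read by CellTiter-Glo luminescence, normalized to DMSO cell wells (high) and medium-only wells (low); IC50 taken as concentration giving 50% viability from 4-parameter logistic fit.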

NUGC4 (P53 WT) = assay: Cell viability assay (CellTiter-Glo, 6 days), NUGC4; type: cell-based; details: cell viability, 6 days, CellTiter-Glo, read-out: NUGC4 (P53 WT) IC50
Method in brief: as §1

| Compound | EC50 [2] [µM] | EC50 ([1]; Homo sapiens, NUGC-3) [µM] | IC50 (NUGC3 (P53 Y220C); Homo sapiens, NUGC-3, 144 h) [µM] | IC50 (NUGC4 (P53 WT); Homo sapiens, NUGC-4, 144 h) [µM] | EC50 ([1]; Homo sapiens, NUGC-3, 6 h) [µM] | EC50 [1] [µM] | IC50 (NUGC3 (P53 Y220C)) [µM] | IC50 (NUGC4 (P53 WT)) [µM] |
| --- | --- | --- | --- | --- | --- | --- | --- | --- |
| CN1CC[C@@H](Nc2cccc3c(CC(F)(F)F)c(C#CCNc4ccc(P(C)(C)=O)cc4F)sc23)[C@@H](F)C1 [Example 84, (3-fluoro-4-((3-(7-(((3S,4R)-3-fluoro-1-methylpiperidin-4-yl)amino)-3-(2,2,2-trifluoroethyl)benzo[b]thiophen-2-yl)prop-2-yn-1-yl)amino)phenyl)dimethylphosphine oxide] | 0.045 |  | 1.42 | 11.5 | 0.17 |  |  |  |
| CNC(=O)c1ccc(NCC#Cc2sc3c(N[C@@H]4CCN(C)C[C@@H]4F)cccc3c2CC(F)(F)F)c(OC)c1 [Example 113, 4-((3-(7-(((3S,4R)-3-fluoro-1-methylpiperidin-4-yl)amino)-3-(2,2,2-trifluoroethyl)benzo[b]thiophen-2-yl)prop-2-yn-1-yl)amino)-3-methoxy-N-methylbenzamide] | 0.044 |  | 0.93 | 6.1 | 0.07 |  |  |  |
| COc1cc(P(C)(C)=O)ccc1NCC#Cc1sc2c(N[C@H]3CCN(C)C[C@H]3C)cccc2c1CC(F)(F)F [Example 125, (4-((3-(7-(((3R,4S)-1,3-dimethylpiperidin-4-yl)amino)-3-(2,2,2-trifluoroethyl)benzo[b]thiophen-2-yl)prop-2-yn-1-yl)amino)-3-methoxyphenyl)dimethylphosphine oxide] | 0.054 |  | 1.27 | 2.57 | 0.18 |  |  |  |
| COc1cc(P(C)(C)=O)ccc1NCC#Cc1sc2c(NC3CCN(C)CC3F)cccc2c1CC(F)(F)F (stereo not drawn) [Example 15, (4-((3-(7-(((Z)-3-fluoro-1-methylpiperidin-4-yl)amino)-3-(2,2,2-trifluoroethyl)benzo[b]thiophen-2-yl)prop-2-yn-1-yl)amino)-3-methoxyphenyl)dimethylphosphine oxide] | 0.034 |  |  |  |  | 0.31 | 0.36 | 6.99 |
| CNC(=O)c1ccc(NCC#Cc2cc3c(N[C@H]4CCN(C)C[C@H]4F)cccc3n2CC(F)(F)F)c(OC)c1 [Example 111, 4-((3-(4-(((3R,4S)-3-fluoro-1-methylpiperidin-4-yl)amino)-1-(2,2,2-trifluoroethyl)-1H-indol-2-yl)prop-2-yn-1-yl)amino)-3-methoxy-N-methylbenzamide] | 0.101 |  | 1.84 | 13.1 | 0.16 |  |  |  |
| COCC(O)CNC(=O)c1ccc(NCC#Cc2sc3c(NC4CCN(C)CC4F)cccc3c2CC(F)(F)F)c(OC)c1 (stereo not drawn) [Example 59, 4-((3-(7-(((Z)-3-fluoro-1-methylpiperidin-4-yl)amino)-3-(2,2,2-trifluoroethyl)benzo[b]thiophen-2-yl)prop-2-yn-1-yl)amino)-N-(2-hydroxy-3-methoxypropyl)-3-methoxybenzamide] | 0.073 |  |  |  |  | 0.15 | 1.44 | 9.82 |
| CN1CCC(Nc2cccc3c(CC(F)(F)F)c(C#CCNc4ccc(P(C)(C)=O)cc4OC(F)(F)F)sc23)C(F)C1 (stereo not drawn) [Example 65, (4-((3-(7-(((Z)-3-fluoro-1-methylpiperidin-4-yl)amino)-3-(2,2,2-trifluoroethyl)benzo[b]thiophen-2-yl)prop-2-yn-1-yl)amino)-3-(trifluoromethoxy)phenyl)dimethylphosphine oxide] | 0.046 |  |  |  |  | 0.12 | 1.56 | 10 |
| COc1cc(P(=O)(C2CC2)C2CC2)ccc1NCC#Cc1sc2c(N[C@@H]3CCN(C)C[C@@H]3F)cccc2c1CC(F)(F)F [Example 141, dicyclopropyl(4-((3-(7-(((3S,4R)-3-fluoro-1-methylpiperidin-4-yl)amino)-3-(2,2,2-trifluoroethyl)benzo[b]thiophen-2-yl)prop-2-yn-1-yl)amino)-3-methoxyphenyl)phosphine oxide] | 0.049 |  | 1.13 | 9.06 | 0.09 |  |  |  |
| COc1cc(P(C)(C)=O)c(F)cc1NCC#Cc1sc2c(NC3CCN(C)CC3F)cccc2c1CC(F)(F)F (stereo not drawn) [Example 52, (2-fluoro-4-((3-(7-(((Z)-3-fluoro-1-methylpiperidin-4-yl)amino)-3-(2,2,2-trifluoroethyl)benzo[b]thiophen-2-yl)prop-2-yn-1-yl)amino)-5-methoxyphenyl)dimethylphosphine oxide] | 0.055 |  |  |  |  | 0.23 | 0.75 | 4.58 |
| COc1cc(P(C)(C)=O)ccc1NCC#Cc1sc2c(N[C@@H]3CCN(C4CCOCC4)C[C@@H]3F)cccc2c1CC(F)(F)F (racemic) [Example 73, (Z)-(4-((3-(7-((3-fluoro-1-(tetrahydro-2H-pyran-4-yl)piperidin-4-yl)amino)-3-(2,2,2-trifluoroethyl)benzo[b]thiophen-2-yl)prop-2-yn-1-yl)amino)-3-methoxyphenyl)dimethylphosphine oxide] | 0.07 | 0.13 | 0.77 | 3.42 |  |  |  |  |
| CNC(=O)c1ccc(NCC#Cc2sc3c(N[C@H]4CCN(C)C[C@H]4F)cccc3c2CC(F)(F)F)c(OC)c1 (racemic) [Example 41, 4-((3-(7-(((3R,4S)-3-fluoro-1-methylpiperidin-4-yl)amino)-3-(2,2,2-trifluoroethyl)benzo[b]thiophen-2-yl)prop-2-yn-1-yl)amino)-3-methoxy-N-methylbenzamide] | 0.057 | 0.6 | 1.54 | 6.14 |  |  |  |  |

More lines, main results first:

| EC50 [2] [µM] | Compound | EC50 ([1]; Homo sapiens, NUGC-3) [µM] | IC50 (NUGC3 (P53 Y220C); Homo sapiens, NUGC-3, 144 h) [µM] | IC50 (NUGC4 (P53 WT); Homo sapiens, NUGC-4, 144 h) [µM] | EC50 ([1]; Homo sapiens, NUGC-3, 6 h) [µM] | EC50 [1] [µM] | IC50 (NUGC3 (P53 Y220C)) [µM] | IC50 (NUGC4 (P53 WT)) [µM] |
| --- | --- | --- | --- | --- | --- | --- | --- | --- |
| 0.071 | COCC(O)CN1CC[C@@H](Nc2cccc3c(CC(F)(F)F)c(C#CCNc4ccc(P(C)(C)=O)cc4OC)sc23)[C@@H](F)C1 (relative stereo) [Example 97, 1-[(Z)-4-[[2-[3-(4-dimethylphosphoryl-2-methoxy-anilino)prop-1-ynyl]-3-(2,2,2-trifluoroethyl)benzothiophen-7-yl]amino]-3-fluoro-1-piperidyl]-3-methoxy-propan-2-ol] | 0.15 | 0.96 | 5.72 |  |  |  |  |
| 0.043 | CN1CC[C@@H](Nc2cccc3c(CC(F)(F)F)c(C#CCNc4ccc(P(C)(C)=O)c5ccoc45)sc23)[C@@H](F)C1 [Example 198, (7-((3-(7-(((3S,4R)-3-fluoro-1-methylpiperidin-4-yl)amino)-3-(2,2,2-trifluoroethyl)benzo[b]thiophen-2-yl)prop-2-yn-1-yl)amino)benzofuran-4-yl)dimethylphosphine oxide] | 0.2 | 0.26 | 5.1 |  |  |  |  |
| 0.027 | CN1CC[C@@H](Nc2cccc3c(CC(F)(F)F)c(C#CCNc4ccc(P(C)(C)=O)cc4C(N)=O)sc23)[C@@H](F)C1 [Example 199, 5-(dimethylphosphoryl)-2-((3-(7-(((3S,4R)-3-fluoro-1-methylpiperidin-4-yl)amino)-3-(2,2,2-trifluoroethyl)benzo[b]thiophen-2-yl)prop-2-yn-1-yl)amino)benzamide] | 0.06 | 0.36 | 49 |  |  |  |  |
| 0.045 | COc1cc(P(C)(C)=O)ccc1NCC#Cc1sc2c(NC3CC4(C3)CN(C)C4)cccc2c1CC(F)(F)F [Example 189, (3-methoxy-4-((3-(7-((2-methyl-2-azaspiro[3.3]heptan-6-yl)amino)-3-(2,2,2-trifluoroethyl)benzo[b]thiophen-2-yl)prop-2-yn-1-yl)amino)phenyl)dimethylphosphine oxide] | 0.7 | 3.64 | 8.67 |  |  |  |  |
| 0.05 | CN1CC[C@@H](Nc2cccc3c(CC(F)(F)F)c(C#CCNc4ccc(P(C)(C)=O)c5c4OCO5)sc23)[C@@H](F)C1 [Example 163, (7-((3-(7-(((3S,4R)-3-fluoro-1-methylpiperidin-4-yl)amino)-3-(2,2,2-trifluoroethyl)benzo[b]thiophen-2-yl)prop-2-yn-1-yl)amino)benzo[d][1,3]dioxol-4-yl)dimethylphosphine oxide] | 0.18 | 1.21 | 3.82 |  |  |  |  |
| 0.087 | CNC(=O)c1ccc(NCC#Cc2sc3c(N[C@@H]4CCN(C)C[C@@H]4F)cccc3c2CC(F)(F)F)c(OCCOC)c1 (racemic) [Example 81, 4-((3-(7-(((Z)-3-fluoro-1-methylpiperidin-4-yl)amino)-3-(2,2,2-trifluoroethyl)benzo[b]thiophen-2-yl)prop-2-yn-1-yl)amino)-3-(2-methoxyethoxy)-N-methylbenzamide] | 0.29 | 1.68 | 8.64 |  |  |  |  |
| 0.067 | COc1cc(P(C)(C)=O)ccc1NCC#Cc1sc2c(NC3CCN(C4CCOCC4)CC3)cccc2c1CC(F)(F)F [Example 154, (3-methoxy-4-((3-(7-((1-(tetrahydro-2H-pyran-4-yl)piperidin-4-yl)amino)-3-(2,2,2-trifluoroethyl)benzo[b]thiophen-2-yl)prop-2-yn-1-yl)amino)phenyl)dimethylphosphine oxide] | 0.41 | 1.89 | 4.19 |  |  |  |  |
